Source: paper PMC9394307, “Discovery of Putative Dual Inhibitor of Tubulin and EGFR by Phenotypic Approach on LASSBio-1586 Homologs” (Pharmaceuticals, 2022)
Like-named read-outs stand apart in the source and are kept apart here.

Legend:
[1] = test system: EGFR in PC-9 cell line (EGFR^L858R); assay: Guava Muse EGFR-RTK Activation Dual Detection Kit, flow cytometry; format: cell-based, human
Protocol: (§1) Flow cytometry was applied to help elucidate the mechanism of action of the studied compounds, both to verify the cell cycle phase and to verify the action on EGFR protein kinase.
(§2) The anti-tubulin effect was evaluated by seeding H1975, H292 and PC-9 into 6-well plates at a density of 2 × 10^5 per well. The cells were treated with the selected compounds for 72 h. Cells were harvested and stained according to the protocols of The Guava Muse® Cell Cycle Kit (MCH100106) to quantitatively measure the percentage of cells in the G2/M phases of the cell cycle and the EGFR-RTK Activation Dual Detection Kit (MCH200102) (Luminex®) to measure EGFR phosphorylation in relation to total EGFR expression in the cell population, according to the manufacturer’s instructions for use in test kits using a Guava Muse® Cell Analyzer (Luminex®). Each experiment was performed at least three times independently.

PC-3 = assay: MTT cell viability assay, PC-3; format: cell-based; details: Homo sapiens, PC-3, 72 h, read-out: CC50 (µM) (CI) PC-3
Protocol: (§3) The cytotoxic activity of compounds 3–13 was determined based on an MTT assay against different human tumor cell lines, using LASSBio-1586 (2), LASSBio-1735 (3), CA-4 (1) and pelitinib as standards (Table 2). To determine the cytotoxic selectivity index, compounds were also evaluated toward human lymphocytes (Table 3).
(§4) The target compounds were tested (0.0001–100 µM) for cytotoxic activity against selected human cancer cell lines, such as HL-60 (acute promyelocytic leukemia), MCF-7 (mammary adenocarcinoma), PC-3 (prostate adenocarcinoma), H1975 (non-small cell lung cancer—EGFR^L858R+T790M), PC-9 (non-small cell lung cancer—EGFR^L858R) H292 (mucoepidermoid pulmonary carcinoma—EGFR wild type), LoVo (colorectal adenocarcinoma—EGFRwild type) and GM16000 (lymphocyte). All the human cancer cell lines were purchased from Cell Bank of Rio de Janeiro—BCRJ. They were cultured in RPMI 1640 medium with 10% (v/v) FBS, 2 mM glutamine, at 37 °C in a humidified incubator containing 5% CO2.
(§5) The cytotoxicity of the compounds was evaluated by the MTT assay. The cell lines were cultured in 96 well plates for 72 h with a density of 0.1 × 10^5 cells/mL to 0.7 × 10^5 cells/mL to adherent cell lines. For lymphocytic lines, a density of 0.3 × 10^6 cells/mL was used. Afterwards they were treated with varying concentrations of the target compounds 2–12 (0.0001–100 µM), CA-4 (1) and pelitinib at 37 °C, in triplicate. The medium was incubated with 20 μL of 5 mg/mL MTT solution for 3 h in a humidified incubator containing 5% CO2 [11].
(§6) The purple-colored formazan crystals formed in the wells were dissolved in DMSO and their absorbance was measured at 595 nm with a microplate reader (SpectraMax M5, Molecular Devices).

H1975 cells [2] = assay: Cell cycle analysis by flow cytometry (Guava Muse Cell Cycle Kit); format: cell-based, human; details: H1975, 48 h of treatment; CA-4 0.04 µM, LASSBio-1586 2.0 µM, LASSBio-1735 0.08 µM, LASSBio-2070 3.0 µM, LASSBio-2074 1.5 µM; vs DMSO 0.1%
Protocol: Changes in the cell cycle are important aspect in tumorigenesis. Therefore, the identification of the steps related to inhibition of cell multiplication is an important process during the discovery of new antitumoral drug candidates. […] Flow cytometry was used for cell cycle analysis to estimate the percentages of a cell population in the different phases of the cell cycle. The analysis was performed using the lung cancer cell line H1975 treated with CA-4 (1, 0.04 µM), LASSBio-1586 (2, 2.0 µM), LASSBio-1735 (3, 0.08 µM), LASSBio-2070 (10, 3.0 µM) and LASSBio-2074 (11, 1.5 µM).
as §1
as §2, with “The cells were treated with the selected compounds for 72 h.” left out

PC-9 = assay: MTT cell viability assay, PC-9; format: cell-based, human; details: Homo sapiens, read-out: CC50 (µM) (CI) PC-9
Protocol: as §3, §4
as §5, with “The cell lines were cultured in 96 well plates for 72 h with a density of 0.1 × 10^5 cells/mL to 0.7 × 10^5 cells/mL to adherent cell lines.” left out
as §6

LoVo = assay: MTT cell viability assay, LoVo; format: cell-based; details: Homo sapiens, read-out: CC50 (µM) (CI) LoVo
Protocol: as §3, §4, §5, §6

H292 = assay: MTT cell viability assay, H292; format: cell-based, human; details: Homo sapiens, read-out: CC50 (µM) (CI) H292
Protocol: as §3, §4
as §5, with “The cell lines were cultured in 96 well plates for 72 h with a density of 0.1 × 10^5 cells/mL to 0.7 × 10^5 cells/mL to adherent cell lines.” left out
as §6

MCF-7 = assay: MTT cell viability assay, MCF-7; format: cell-based, human; details: Homo sapiens, MCF7, 72 h, read-out: CC50 (µM) (CI) MCF-7
Protocol: as §3, §4, §5, §6

[3] = MTT cell viability assay, GM16000 lymphocytes; format: cell-based; details: human lymphocytes, value (95% CI)
Protocol: as §3
To establish the cytotoxic selective index (SI) of LASSBio-1586 homologs, they were studied on human lymphocyte cell lines (GM16000), using the MTT assay. The SI was calculated by the ratio between the CC50 on tumor and non-tumor cell lines. Although there is no consensus, values of SI ≥ 10 is considered satisfactory to assign safety to a new cytotoxic agent. This value means that the compound is more than ten times more cytotoxic to the tumor cell line than to normal cell line.
as §4, §5, §6

H1975 cells [4] = assay: Immunofluorescence of β-tubulin / microtubules; format: cell-based, human; details: H1975, 48 h; CA-4 0.3 µM, vincristine 0.5 µM, taxol 0.1 µM, LASSBio-1586 10 µM, LASSBio-1735 0.5 µM, LASSBio-2070 4.5 µM, LASSBio-2074 20 µM
Protocol: Antitubulin agents have been broadly classified into destabilizing or stabilizing agents, based on their interference with the dynamic balance of polymerization or depolymerization of microtubules. […] CA-4 (1, 0.3 µM), vincristine (0.5 µM) and taxol (0.1 µM) were used as standard controls.
After incubation, cells were rinsed with PBS and fixed with 4% paraformaldehyde in PBS for 10 min at room temperature. They were then permeabilized with 0.5% Triton-X 100 in PBS 3 times for 10 min. The same solution was used for all subsequent washing steps. Cells were incubated with an anti-beta-tubulin antibody for 1 h at 37 °C. After incubation, cells were washed for 30 min and incubated with Alexa Fluor® 488, conjugated secondary antibody for 1 h at 37 °C, and nuclei were labeled with DAPI (0.1 mg/mL in 0.9% NaCl).
Live cultured cells grown in coverslips were mounted in Prolong Gold solution (Molecular Probes, USA) and were imaged on a Leica TCS SPE confocal microscope (Leica Microsystems, Germany) using 63x 1.3 N.A. oil immersion and the images acquired by the LAS X software. Cell morphology, focusing on the microtubules was analyzed, qualitatively, using the public domain NIH ImageJ Program (developed at the National Institutes of the USA Health and available on the internet at http://imagej.nih.gov/ij/ (accessed on 1 September 2021).

HL-60 = assay: MTT cell viability assay, HL-60; format: cell-based, human; details: Homo sapiens, read-out: CC50 (µM) (CI) HL-60
Protocol: as §3, §4
as §5, with “The cell lines were cultured in 96 well plates for 72 h with a density of 0.1 × 10^5 cells/mL to 0.7 × 10^5 cells/mL to adherent cell lines.” left out
as §6

H1975 = assay: MTT cell viability assay, H1975; format: cell-based, human; details: Homo sapiens, read-out: CC50 (µM) (CI) H1975
Protocol: as §3, §4
as §5, with “The cell lines were cultured in 96 well plates for 72 h with a density of 0.1 × 10^5 cells/mL to 0.7 × 10^5 cells/mL to adherent cell lines.” left out
as §6

[5] = MTT cell viability assay, GM16000 lymphocytes; format: cell-based; details: human lymphocytes, value (95% CI); remark: listed apart in the source

Compound	cells with Inactivated EGFR (EGFR inactivation index) [1]	CC50 (PC-3)	cell cycle distribution (G0/G1, S, G2/M) (H1975 cells [2])	CC50 (PC-9; PC-9, 48 h)	CC50 (PC-9; PC-9, 72 h)	CC50 (LoVo; 48 h)	CC50 (LoVo; 72 h)	CC50 (H292; NCI-H292, 48 h)	CC50 (H292; NCI-H292, 72 h)	CC50 (MCF-7)	CC50 at 72 h [3]	cell morphology after treatment (H1975 cells [4])	effect on microtubules (stabilizing / destabilizing profile) (H1975 cells [4])	CC50 (HL-60; HL-60, 48 h)	CC50 (HL-60; HL-60, 72 h)	CC50 (H1975; NCI-H1975, 48 h)	CC50 (H1975; NCI-H1975, 72 h)	CC50 at 48 h [5]
C=CC(=O)Nc1cc(Nc2nccc(-c3cn(C)c4ccccc34)n2)c(OC)cc1N(C)CCN(C)C [Osimertinib, reference compound]	30%																	
COc1ccc(/C=C\c2cc(OC)c(OC)c(OC)c2)cc1O [CA-4 (1), Combretastatin A-4, reference compound]		0.096 µM	increased cells in phase G2/M	0.025 µM	0.01 µM	0.179 µM	0.039 µM	0.091 µM	0.013 µM	8.58 µM	0.064 µM	rounded shape	typical response of microtubule destabilizing agents	1.3 µM	0.077 µM	0.058 µM	0.035 µM	0.016 µM
